According to patent US20200237779A1, “COMBINATION THERAPY WITH A BET INHIBITOR AND A BCL-2 INHIBITOR” (Hoffmann-La Roche Inc., priority 2017, published 2020):

Test system: KMS-12BM MM xenografts
Test: In vivo antitumor efficacy against KMS-12BM MM xenografts
Design: species or system CIEA NOG mice
Settings: D14-25; for Antitumor efficacy (result in words): KMS-12BM xenografts, RG6146 30 mg/kg ip, venetoclax 100 mg/kg po, single agent or combination; for Tumor Regression (%) / npTCR and CI (non-parametric Treatment to Control Ratio) / TGI % (tumor growth inhibition): s.c. KMS-12BM human MM xenografts in female CIEA NOG mice, RG6146 30 mg/kg ip QD, venetoclax 100 mg/kg po QD, Day 25; for TGI % (tumor growth inhibition): compared to control
Procedure: The in vivo antitumor efficacy of BET inhibitor RG6146 in combination with Bcl-2 inhibitor venetoclax (GDC-0199) was evaluated against KMS-12BM MM xenografts.
BET inhibitor RG6146 was provided as a powder from Roche, Basel, Switzerland and resuspended prior to use. Bcl-2 inhibitor venetoclax was provided by Genentech, South San Francisco, USA and formulated prior to use.
The original KMS-12BM human Multiple Myeloma cell line (MM) was purchased from ATCC (Manassas, V., USA). Expansion of tumor cells for the transplantation was done by the TAP CompacT CellBase Cell Culture Roboter according to the protocol. Tumor cell line was routinely cultured in RPMI 1640 medium, FCS 10% and L-Glutamin 2 mM at 37° C. in a water-saturated atmosphere at 5% CO2. Culture passage was performed with trypsin/EDTA 1× splitting twice/week and passage 3 used for transplantation.
Female CIEA NOG mice (Taconic), age 5-7 weeks at arrival, maintained under specific-pathogen-free condition with daily cycles of 12 h light/12 h darkness according to committed guidelines. Experimental study protocol was reviewed and approved by local government. After arrival animals were maintained in animal facility for one week to get accustomed to new environment and for observation. Continuous health monitoring was carried out on regular basis. Diet food and autoclaved water were provided ad libitum.
Animals were controlled daily for clinical symptoms and detection of adverse effects. For monitoring throughout the experiment body weight of animals was documented.
Animal treatment started after randomisation when median tumor size was about 170 mm^3. The vehicle was administered ip once daily (QD) on D14-25. BET inhibitor RG6146 ip treatment at 30 mg/kg was done as single agent and in combination on D14-25. Finally, Bcl-2 inhibitor venetoclax was given orally at 100 mg/kg as single agent and in combination on D14-25.
KMS-12BM human MM cells were s.c. inoculated with Matrigel onto female CIEA-NOG mice. Tumor bearing mice were randomized 14 days later to the indicated study groups and compound treatment initiated. Tumor bearing animals were treated with vehicle control, with the BET inhibitor RG6146 at 30 mg/kg or with Bcl-2 inhibitor venetoclax at 100 mg/kg as single agent and in combination thereof.

Structure (SMILES)	Antitumor efficacy (result in words)	Tumor Regression (%)	npTCR and CI (non-parametric Treatment to Control Ratio)	TGI % (tumor growth inhibition) [%]
Cc1sc2c(c1C)C(c1ccc(Cl)cc1)=N[C@@H](CC(=O)NCCCN1CCN(C)CC1)c1nnc(C)n1-2 [RG6146, 2-[(S)-4-(4-Chloro-phenyl)-2,3,9-trimethyl-6H-1-thia-5,7,8,9a-tetraaza-cyclopenta[e]azulen-6-yl]-N-[3-(4-methyl-piperazin-1-yl)-propyl]-acetamide]	nearly tumor stasis	0	0.06	94
CC1(C)CCC(CN2CCN(c3ccc(C(=O)NS(=O)(=O)c4ccc(NCC5CCOCC5)c([N+](=O)[O-])c4)c(Oc4cnc5[nH]ccc5c4)c3)CC2)=C(c2ccc(Cl)cc2)C1 [venetoclax, 4-(4-{[2-(4-chlorophenyl)-4,4-dimethylcyclohex-1-en-1-yl]methyl}piprazin-1-yl)-N-({3-nitro-4-[(tetrahydro-2H-pyran-4-ylmethyl)amino]phenyl}sulfonyl)-2-(1H-pyrrolo[2,3-b]pyridin-5-yloxy)benzamide]	weaker activity	0	0.55	49
